In ChEMBL document CHEMBL1123432, “Methotrexate analogues. 28. Synthesis and biological evaluation of new gamma-monoamides of aminopterin and methotrexate” (J Med Chem, 1986):
Where “and” joins values, the source holds several entries; their conditions need not be identical. Equal values may be shown once.

Columns and labels:
Mus musculus [1] = experiment: Increase in life span of mice with L1210 leukemia cells at a dose of 80 mg/kg; format: functional
Mus musculus [2] = experiment: Median Survival days of mice infected with L1210 leukemia cells at dose 80 mg/kg relative to that of 9 days for control; format: functional
Homo sapiens [3] = species: Homo sapiens; experiment: Compound was tested for its inhibitory concentration against human leukemic lymphoblasts (CEM Cells).; format: functional; details: CCRF-CEM
Mus musculus [4] = experiment: Increase in life span of mice with L1210 leukemia cells at a dose of 20 mg/kg; format: functional
L1210 [5] = experiment: Compound was tested for its inhibitory concentration to inhibit the growth of wild type L1210 cells and a subline (L1210 / R81).; format: functional, cell-based; details: Mus musculus
L1210 [6] = experiment: Compound was tested for its inhibitory concentration to inhibit the growth of wild type L1210 cells.; format: functional, cell-based, Mus musculus
Mus musculus [7] = experiment: Median Survival days of mice infected with L1210 leukemia cells at dose 20 mg/kg relative to that of 9 days for control; format: functional
Mus musculus [8] = experiment: Increase in life span of mice with L1210 leukemia cells at a dose of 40 mg/kg; format: functional
Homo sapiens [9] = species: Homo sapiens; experiment: Compound was tested for its inhibitory concentration against human leukemic lymphoblasts (CEM Cells) and a resistant subline (CEM / MTX).; format: functional; details: CCRF-CEM
Mus musculus [10] = species: Mus musculus; experiment: Compound was tested against weight change in mice with L1210 leukemia cells on 10 th Day at Dose 80 mg / kg; details: at 80 mg/kg
Mus musculus [11] = experiment: Median Survival days of mice infected with L1210 leukemia cells at dose 40 mg/kg relative to that of 9 days for control; format: functional
[12] = target: T1, Dihydrofolate reductase (Mus musculus) (UniProt P00375); details: L1210
T1 sequence (whole entry): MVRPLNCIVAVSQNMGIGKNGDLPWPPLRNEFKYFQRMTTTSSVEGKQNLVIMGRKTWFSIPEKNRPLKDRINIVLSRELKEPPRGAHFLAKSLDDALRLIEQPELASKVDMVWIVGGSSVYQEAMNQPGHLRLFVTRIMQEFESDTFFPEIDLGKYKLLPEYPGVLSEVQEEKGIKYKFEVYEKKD
Description: Compound was tested for inhibition of the enzyme DiHydroFolate Reductase (DHFR) from murine L1210 leukemia cells

Dihydrofolate reductase [13] = target: T2, Dihydrofolate reductase (Mus musculus, UniProt P00375); experiment: biochemical
T2 sequence (P00375 whole entry): T1 sequence (whole entry)
Description: Compound was tested for its inhibitory concentration to inhibit the enzyme Dihydro Folate Reductase (DHFR) from murine L1210 leukemia cells.

Dihydrofolate reductase [14] = target: T2, Dihydrofolate reductase; experiment: Compound was tested for its inhibitory concentration to inhibit the enzyme Dihydro Folate Reductase ( DHFR ) from murine L1210 leukemia cells.; format: cell-based
L1210 [15] = experiment: Compound was tested for its inhibitory concentration to inhibit the growth of wild type L1210 cells and a subline ( L1210 / R81 ).; format: functional, cell-based; details: Mus musculus
L1210 [16] = experiment: Compound was tested for its inhibitory concentration to inhibit the growth of wild type L1210 cells; Mean of four separate assays; format: functional, cell-based; details: Mus musculus
Mus musculus [17] = experiment: Median Survival days of mice infected with L1210 leukemia cells at dose 10 mg/kg relative to that of 9 days for control in expt 1; format: functional
Mus musculus [18] = experiment: Increase in life span of mice with L1210 leukemia cells at a dose of 10 mg/kg in expt 1; format: functional
Mus musculus [19] = species: Mus musculus; experiment: Compound was tested against weight change in mice with L1210 leukemia cells on 10 th Day at Dose 40 mg / kg; details: at 40 mg/kg
Mus musculus [20] = species: Mus musculus; experiment: Compound was tested against weight change in mice with L1210 leukemia cells on 7 th Day at Dose 10 mg / kg; format: functional; details: at 10 mg/kg
Mus musculus [21] = experiment: Increase in life span of mice with L1210 leukemia cells at a dose of 40 mg/kg in expt 2; Toxic; format: functional, organism-based; set-up: dose 40 mg/kg
Mus musculus [22] = experiment: Median Survival days of mice infected with L1210 leukemia cells at dose 40 mg/kg relative to that of 9 days for control in expt 1; Toxic; format: functional, organism-based; set-up: dose 40 mg/kg
Mus musculus [23] = experiment: Median Survival days of mice infected with L1210 leukemia cells at dose 20 mg/kg relative to that of 9 days for control in expt 1; format: functional
Mus musculus [24] = experiment: Increase in life span of mice with L1210 leukemia cells at a dose of 80 mg/kg in expt 2; Toxic; format: functional, organism-based; set-up: dose 80 mg/kg
Mus musculus [25] = species: Mus musculus; experiment: Compound was tested against weight change in mice with L1210 leukemia cells on 10 th Day at Dose 20 mg / kg; details: at 20 mg/kg
Mus musculus [26] = experiment: Increase in life span of mice with L1210 leukemia cells at a dose of 80 mg/kg in expt 2; format: functional
Mus musculus [27] = experiment: Median Survival days of mice infected with L1210 leukemia cells at dose 80 mg/kg relative to that of 9 days for control in expt 1; Toxic; format: functional, organism-based; set-up: dose 80 mg/kg
Mus musculus [28] = experiment: Median Survival days of mice infected with L1210 leukemia cells at dose 50 mg/kg relative to that of 10 days for control; format: functional
Mus musculus [29] = experiment: Increase in life span of mice with L1210 leukemia cells at a dose of 80 mg/kg; Toxic; format: functional, organism-based; set-up: dose 80 mg/kg
Mus musculus [30] = species: Mus musculus; experiment: Compound was tested against weight change in mice with L1210 leukemia cells on 10 th Day at Dose 70 mg / kg; details: at 70 mg/kg
Mus musculus [31] = experiment: Increase in life span of mice with L1210 leukemia cells at a dose of 50 mg/kg; format: functional
Mus musculus [32] = species: Mus musculus; experiment: Compound was tested against weight change in mice with L1210 leukemia cells on 10 th Day at Dose 50 mg / kg; details: at 50 mg/kg
Mus musculus [33] = experiment: Median Survival days of mice infected with L1210 leukemia cells at dose 70 mg/kg relative to that of 10 days for control; format: functional
Mus musculus [34] = experiment: Median Survival days of mice infected with L1210 leukemia cells at dose 60 mg/kg relative to that of 10 days for control; format: functional
Mus musculus [35] = species: Mus musculus; experiment: Compound was tested against weight change in mice with L1210 leukemia cells on 10 th Day at Dose 60 mg / kg; details: at 60 mg/kg
Mus musculus [36] = experiment: Median Survival days of mice infected with L1210 leukemia cells at dose 70 mg/kg relative to that of 10 days for control; Toxic; format: functional, organism-based; set-up: dose 70 mg/kg

IC50 (Dihydrofolate reductase [14]) [nM] | IC50 (L1210 [15]) [nM] | Structure (SMILES) | ILS at 80 mg/kg (Mus musculus [1]) [%] | IC50 (Homo sapiens [3]) [nM] | IC50 (L1210 [5]) [nM] | IC50 (L1210 [6]; Mus musculus, L1210) [nM] | IC50 (L1210 [6]; l1210) | IC50 (Homo sapiens [9]) [nM] | Weight change (Mus musculus [10]) [%] | IC50/[E] [12] | IC50 (Dihydrofolate reductase [13]) [nM] | other results
 |  | Nc1nc(N)c2nc(CNc3ccc(C(=O)NC(CCC(=O)N[C@]45C[C@H]6C[C@H](C[C@H](C6)C4)C5)C(=O)O)cc3)cnc2n1 (stereo not given in full) | 22 | 4500 | 25000 | 680 | 510 nM | 16000 | 17 | 2.5 | 100 | Survival (Mus musculus [2]): 10 days; ILS at 20 mg/kg (Mus musculus [4]): -11%; Survival (Mus musculus [7]): 8 days; ILS at 40 mg/kg (Mus musculus [8]): 0%; Survival (Mus musculus [11]): 9 days
31 | 38000 | CN(Cc1cnc2nc(N)nc(N)c2n1)c1ccc(C(=O)NC(CCC(=O)Nc2ccc(O)c(O)c2)C(=O)O)cc1 (stereo not given) |  |  |  |  | 30 nM and 8.4 nM |  |  |  |  | 
 |  | Nc1nc(N)c2nc(CNc3ccc(C(=O)NC(CCC(=O)Nc4ccc5c(c4)OCO5)C(=O)O)cc3)cnc2n1 (stereo not given) |  | 140 | 28000 | 3.2 |  | 1000 | -26 | 1.1 | 45 | IC50 (L1210 [16]): 0.39 nM; Survival (Mus musculus [17]): 12 days; ILS at 10 mg/kg (Mus musculus [18]): 56%; Weight change (Mus musculus [19]): -20%; Weight change (Mus musculus [20]): 7%; ILS (Mus musculus [21]): Toxic; Survival (Mus musculus [22]): Toxic; Survival (Mus musculus [23]): 14 days; ILS (Mus musculus [24]): Toxic; Weight change (Mus musculus [25]): 3%; ILS at 80 mg/kg (Mus musculus [26]): 33%; Survival (Mus musculus [27]): Toxic
57 | 23000 | Nc1nc(N)c2nc(CNc3ccc(C(=O)NC(CCC(=O)Nc4ccc(O)c(O)c4)C(=O)O)cc3)cnc2n1 (stereo not given) |  |  |  |  | 37 nM and 6 nM |  |  |  |  | 
 |  | Nc1nc(N)c2nc(CNc3ccc(C(=O)NC(CCC(=O)NCc4ccc(Cl)c(Cl)c4)C(=O)O)cc3)cnc2n1 (stereo not given) | 50 |  | 32000 | 46 | 34 nM |  | -16 | 3.3 | 130 | Survival (Mus musculus [28]): 15 days; ILS (Mus musculus [29]): Toxic; Weight change (Mus musculus [30]): -3%; ILS at 50 mg/kg (Mus musculus [31]): 70%; Weight change (Mus musculus [32]): 2%; Survival (Mus musculus [33]): 21 days; Survival (Mus musculus [34]): 17 days; Weight change (Mus musculus [35]): 0%; Survival (Mus musculus [36]): Toxic
